According to ChEMBL document CHEMBL1201862, “PubChem BioAssay data set” (2004):
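Following 48 hours of exposure in 96-well plates, responses at five concentrations were used to interpolate endpoints linearly. At the GI50, growth is halved.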 Calls of active or inactive are those of the source. Rule as the data show it: active = GI50 up to about 1.1 µM and inactive = higher.

What was measured:
Assay in all cases: NCI-60 cell line screen, 48 h
RPMI-8226 = test system: RPMI-8226
KM12 = test system: KM12
U-251 = test system: U-251
SK-MEL-28 = test system: SK-MEL-28
CAKI-1 = test system: CAKI-1
LOX IMVI = test system: LOX IMVI
NCI-H226 = test system: NCI-H226
HOP-92 = test system: HOP-92
SR = test system: SR
MDA-MB-231 = test system: MDA-MB-231
IGROV-1 = test system: IGROV-1
A498 = test system: A498
M14 = test system: M14
HT-29 = test system: HT-29
TK-10 = test system: TK-10
COLO 205 = test system: COLO 205
SF-539 = test system: SF-539
OVCAR-3 = test system: OVCAR-3
CCRF-CEM = test system: CCRF-CEM

Measured: GI50

Cc1ccc([N+](=O)[O-])c2c(NCCNC(=O)c3cc(C(=O)NCCNc4ccnc5c(C)ccc([N+](=O)[O-])c45)n(C)n3)ccnc12
inactive: RPMI-8226 41.2 µM | KM12 > 100 µM | U-251 > 89.5 µM | SK-MEL-28 > 60.5 µM | CAKI-1 98.6 µM | LOX IMVI > 44.7 µM | NCI-H226 > 100 µM | HOP-92 > 100 µM | SR 55.1 µM | MDA-MB-231 > 54 µM | IGROV-1 > 100 µM | A498 > 57.4 µM | M14 > 72.4 µM | HT-29 > 77.8 µM | TK-10 > 80.7 µM | COLO 205 > 100 µM | SF-539 > 100 µM | OVCAR-3 > 80.9 µM | CCRF-CEM 36 µM

CCOC(=O)CSc1nnc2cc(CN3CCCC3)c(-c3ccc(Cl)cc3)nn12
inactive: RPMI-8226 63.2 µM | KM12 > 100 µM | U-251 > 100 µM | SK-MEL-28 > 100 µM | CAKI-1 > 100 µM | LOX IMVI > 100 µM | NCI-H226 > 100 µM | HOP-92 > 100 µM | SR 41 µM | MDA-MB-231 > 100 µM | IGROV-1 > 100 µM | A498 > 100 µM | M14 > 100 µM | HT-29 74.5 µM | TK-10 > 100 µM | COLO 205 > 100 µM | SF-539 60.1 µM | OVCAR-3 > 100 µM | CCRF-CEM 48.1 µM

COc1ccc(/C=C/C(=O)c2ccc(OC(=O)/C=C/c3ccccc3)cc2)cc1
inactive: RPMI-8226 3.7 µM | KM12 8.97 µM | U-251 19 µM | SK-MEL-28 43.6 µM | CAKI-1 23.3 µM | LOX IMVI 16.7 µM | NCI-H226 59.3 µM | HOP-92 44.5 µM | SR 2.28 µM | MDA-MB-231 27.5 µM | IGROV-1 18.9 µM | A498 25.1 µM | M14 59.8 µM | HT-29 18.5 µM | TK-10 44.1 µM | COLO 205 32.2 µM | SF-539 11.5 µM | OVCAR-3 32 µM | CCRF-CEM 5.21 µM

Brc1ccc2c(-c3nc(-c4c[nH]c5ccccc45)cs3)c[nH]c2c1
inactive: RPMI-8226 12.1 µM | KM12 10 µM | U-251 35.2 µM | SK-MEL-28 > 27.8 µM | CAKI-1 30.9 µM | LOX IMVI 10.4 µM | NCI-H226 39 µM | HOP-92 43.1 µM | SR 13.2 µM | MDA-MB-231 47.1 µM | IGROV-1 30.5 µM | A498 22.7 µM | M14 51.6 µM | HT-29 38.6 µM | TK-10 12.7 µM | COLO 205 19.4 µM | SF-539 15.6 µM | OVCAR-3 39.7 µM | CCRF-CEM 27.4 µM

C=CCNC1=C2C[C@@H](C)C[C@@H](OC)[C@@H](OC(=O)CCCN)[C@H](C)/C=C(\C)[C@@H](OC(N)=O)[C@H](OC)/C=C\C=C(/C)C(=O)NC(=CC1=O)C2=O
inactive: RPMI-8226 14.3 µM | KM12 4.14 µM | U-251 9.44 µM | SK-MEL-28 16.3 µM | CAKI-1 19.8 µM | LOX IMVI 5.45 µM | NCI-H226 17.1 µM | HOP-92 14.7 µM | SR 6.59 µM | MDA-MB-231 15 µM | IGROV-1 13.5 µM | A498 20.5 µM | M14 9.38 µM | HT-29 5.37 µM | TK-10 16.7 µM | COLO 205 3.54 µM | SF-539 12.6 µM | OVCAR-3 16.7 µM | CCRF-CEM 10.6 µM

COC(=O)c1cc(C)ccc1/C=C1\Cc2c(C)cc(C)cc2C1=O
inactive: RPMI-8226 10.3 µM | KM12 > 44 µM | U-251 14 µM | SK-MEL-28 99.1 µM | CAKI-1 30.6 µM | LOX IMVI > 30.7 µM | NCI-H226 35.4 µM | HOP-92 4.56 µM | SR 20 µM | MDA-MB-231 > 36.6 µM | IGROV-1 65.3 µM | A498 30.8 µM | M14 17.3 µM | HT-29 10.8 µM | TK-10 17.9 µM | COLO 205 > 100 µM | SF-539 15.6 µM | OVCAR-3 70.6 µM | CCRF-CEM > 100 µM

Cc1ccc(C)c(NC(=O)NCc2ccc(Cl)cc2)c1
inactive: RPMI-8226 37.2 µM | KM12 87.3 µM | U-251 17.7 µM | SK-MEL-28 97.5 µM | CAKI-1 27.2 µM | LOX IMVI > 100 µM | NCI-H226 38.2 µM | HOP-92 18.3 µM | SR 13.8 µM | MDA-MB-231 20 µM | IGROV-1 41.9 µM | A498 20.8 µM | M14 52.5 µM | HT-29 > 100 µM | TK-10 20.5 µM | COLO 205 > 100 µM | SF-539 > 100 µM | OVCAR-3 28.5 µM | CCRF-CEM 8.51 µM

Cc1cc(=O)oc2c(OS(C)(=O)=O)c(OS(C)(=O)=O)ccc12
inactive: RPMI-8226 > 100 µM | KM12 > 100 µM | U-251 > 100 µM | SK-MEL-28 > 100 µM | CAKI-1 > 100 µM | LOX IMVI > 100 µM | NCI-H226 > 100 µM | HOP-92 > 100 µM | SR > 100 µM | MDA-MB-231 > 100 µM | IGROV-1 > 100 µM | A498 > 100 µM | M14 > 100 µM | HT-29 > 100 µM | TK-10 > 100 µM | COLO 205 > 100 µM | SF-539 > 100 µM | OVCAR-3 > 100 µM | CCRF-CEM > 100 µM

CCOC(=O)C(NC(=O)C(CCCCNP(=O)(OCC)OCC)NC(=O)C(C)NC(C)=O)C(C)C (stereo not given)
inactive: RPMI-8226 > 100 µM | KM12 > 100 µM | U-251 > 100 µM | SK-MEL-28 > 100 µM | CAKI-1 > 100 µM | LOX IMVI > 100 µM | NCI-H226 > 100 µM | HOP-92 > 100 µM | SR > 100 µM | MDA-MB-231 > 100 µM | IGROV-1 > 100 µM | A498 80.7 µM | M14 > 100 µM | HT-29 > 100 µM | TK-10 > 100 µM | COLO 205 > 100 µM | SF-539 > 100 µM | OVCAR-3 > 100 µM | CCRF-CEM > 100 µM

CC1=[N+](C)CCCN1C
inactive: RPMI-8226 > 100 µM | KM12 > 100 µM | U-251 > 100 µM | SK-MEL-28 > 100 µM | CAKI-1 > 100 µM | LOX IMVI > 100 µM | NCI-H226 > 100 µM | HOP-92 > 100 µM | SR > 100 µM | MDA-MB-231 > 100 µM | IGROV-1 > 100 µM | A498 8.69 µM | M14 > 100 µM | HT-29 > 100 µM | TK-10 > 100 µM | COLO 205 > 100 µM | SF-539 > 100 µM | OVCAR-3 > 100 µM | CCRF-CEM > 100 µM
